Measurements published in patent US20240270744A1 (Hoffmann-La Roche Inc., priority 2021, published 2024).
Like-named read-outs stand apart in the source and are kept apart here.

Experiments:
[1] = molecular target: human GABAA α2β2γ1 receptor (Homo sapiens (Human), UniProt P47869+Q8N1C3); test: Radioligand binding assay, competition for [3H]RO7239181, γ1-containing GABAA subtypes; settings: for LogSel: Log of the γ2/γ1 Ki ratio
Experimental: (§1) The affinity of compounds at GABAA γ1 subunit-containing receptors was measured by competition for [^3H]RO7239181 (67.3 Ci/mmol; Roche) binding to membranes from HEK293F cells (ThermoFisher R79007) expressing human (transiently transfected) receptors of composition α5β2γ1, α2β2γ1, α1β2γ1.
(§2) Harvested pellets from HEK293F cells expressing the different GABAA receptor subtypes were resuspended in Mannitol Buffer pH 7.2-7.4 (Mannitol 0.29 M, Triethylamine 10 mM, Acetic acid 10 mM, EDTA 1 mM plus protease inhibitors (20 tablets Complete, Roche Diagnostics Cat. No. 05 056 489 001 per liter)), washed two times and then resuspended at 1:10 to 1:15 dilution in the same buffer. Cell disruption was performed by stirring the suspension in a Parr vessel #4637 at 435 psi for 15 minutes, and then the suspensions were centrifuged at 1000×g for 15 minutes at 4° C. (Beckman Avanti J-HC: rotor JS-4.2). The supernatant (S1) was transferred in a 21 Schott flask and the pellet (P1) was resuspended with Mannitol Buffer up to 175 ml. The resuspended pellet was transferred into a 250 ml Corning centrifugal beaker and centrifuged at 1500×g for 10 minutes at 4° C. (Beckman Avanti J-HC: rotor JS-4.2). The supernatant (S1) was then transferred in the 21 Schott flask and the pellet was discarded. The supernatants (S1) were centrifuged in 500 ml Beckman polypropylene centrifugal beaker at 15′000×g for 30 minutes at 4° C. (Beckman Avanti J-20 XP; rotor JLA-10.500). The pellet (P2) was resuspended with Mannitol Buffer 1:1 and frozen at −80° C. The supernatant (S2) was centrifuged in 100 ml Beckman polypropylene centrifugal tubes at 48000×g for 50 minutes at 4° C. (Beckman Avanti J-20 XP; rotor JA-18). The supernatant (S3) was discarded and the pellet (P3) was resuspended with 1:1 Mannitol Buffer. The P2 and P3 protein concentration was determined with the BIORAD Standard assay method with bovine serum albumin as standard and measured on the NANO-Drop 1000. The membrane suspension was aliquots (500 μl per tube) and stored at −80° C. until required.
(§3) Membrane homogenates were resuspended and polytronised (Polytron PT1200E Kinematica AG) in Potassium Phosphate 10 mM, KCl 100 mM binding buffer at pH 7.4 to a final assay concentration determined with a previous experiment.
(§4) Assays were incubated to equilibrium for 1 hour at 4° C. and then, membranes were filtered onto unifilter (96-well white microplate with bonded GF/C filters preincubated 20-50 minutes in 0.3% Polyethylenimine) with a Filtermate 196 harvester (Packard BioScience) and washed 4 times with cold Potassium Phosphate 10 mM pH 7.4, KCl 100 mM binding buffer. After anhydrousing, filter-retained radioactivity was detected by liquid scintillation counting. Ki values were calculated using Excel-Fit (Microsoft) and are the means of two determinations.

[2] = molecular target: human GABAA α1β3γ2 receptor (Homo sapiens (Human), UniProt P14867+P18507); test: Radioligand binding assay, competition for [3H]Flumazenil, γ2-containing GABAA subtypes; settings: read-out: Ki h-GABAA α1β3γ2
Experimental: The affinity of compounds at GABAA γ2 subunit-containing receptors was measured by competition for [^3H]Flumazenil (81.1 Ci/mmol; Roche) binding to HEK293F cells expressing human (transiently transfected) receptors of composition α1β3γ2.
Harvested pellets from HEK293F cells expressing the different GABAA γ2 receptor subtypes were resuspended in Mannitol Buffer pH 7.2-7.4 and processed as described above for the cells expressing the GABAA γ1 subunit-containing receptors.
Assays were incubated to equilibrium for 1 hour at 4° C. and harvested onto GF/C uni-filters (Packard) by filtration using a Packard harvester and washing with ice-cold wash buffer (50 mM Tris; pH 7.5). After anhydrousing, filter-retained radioactivity was detected by liquid scintillation counting. Ki values were calculated using Excel-Fit (Microsoft) and are the means of two determinations.

[3] = molecular target: human GABAA α5β2γ1 receptor (Homo sapiens (Human), UniProt P31644+Q8N1C3); test: Radioligand binding assay, competition for [3H]RO7239181, γ1-containing GABAA subtypes; settings: Table 1; [3H]RO7239181 displacement, membranes from HEK293F cells, mean of two determinations
Experimental: as §1, with “α1β2γ1. For better protein expression of the α2 subunit-containing receptors, the 28 amino acid long signal peptide (Met1 to Ala28) of the human GABAA α2 subunit was substituted by the 31 amino acid long signal peptide (Met1 to Ser31) of human GABAA α5 subunit.” for “α1β2γ1.”
as §2, §3
as §4, with “Radioligand binding assays were carried out in a volume of 200 μL (96-well plates) which contained 100 μL of cell membranes, [3H]RO7239181 at a concentration of 1.5 nM (α5β2γ1) or 20-30 nM (α1β2γ1, α2β2γ1) and the test compound in the range of [0.3-10000]=10^−9 M. Nonspecific binding was defined by 10×10^−6 (α5β2γ1) and 30×10^−6 M RO7239181 and typically represented less than 5% (α5β2γ1) and less than 20% (β1β2γ1, α2β2γ1) of the total binding. Assays” for “Assays”
Representative test results, obtained by the above described assay measuring binding affinity to HEK293 cells expressing human (h) receptors, are shown in the Table 1.

[4] = Ki h-GABAA α2β2γ1, Table 1, [3H]RO7239181 displacement, membranes from HEK293F cells, mean of two determinations
[5] = Ki h-GABAA α2β2γ1, Table 2, [3H]RO7239181 displacement
[6] = Table 1, Ki α1β3γ2 (nM)/Ki α2β2γ1 (nM)
[7] = Table 1, [3H]Flumazenil displacement, HEK293F cells, mean of two determinations
[8] = Ki h-GABAA α2β2γ1, Table 3, reference compounds comparison
[9] = Table 3, reference compounds comparison

Structure (SMILES) | Ki [1, 4] | Ki [1, 5] | γ2/γ1 Selectivity Ratio [1, 6] | LogSel ([1]; Table 1) | Ki [2, 7] | Ki [3] | Ki [1] | Ki ([1]; read-out: Ki h-GABAA α2β2γ1, Table 2, [3H]RO7239181 displacement) | Ki [1, 8] | γ2/γ1 Selectivity Ratio ([1]; Table 3, Ki α1β3γ2/Ki α2β2γ1) | LogSel ([1]; Table 3) | Ki [2, 9] | Ki ([1]; Table 1, [3H]RO7239181 displacement, membranes from HEK293F cells, mean of two determinations, read-out: Ki h-GABAA α2β2γ1) | Ki ([1]; Table 2, [3H]RO7239181 displacement, read-out: Ki h-GABAA α2β2γ1)
Cc1nnc2n1-c1cnc(Cl)c(Cl)c1C(c1c(F)cccc1F)=N[C@H]2C [Example 1, (7S)-11,12-dichloro-9-(2,6-difluorophenyl)-3,7-dimethyl-2,4,5,8,13-pentazatricyclo[8.4.0.02,6]tetradeca-1(10),3,5,8,11,13-hexaene] | 31.7 nM | 31.7 nM | 34 | 1.53 | 1090 nM | 2.4 nM |  |  |  |  |  |  |  | 
Cc1nnc2n1-c1cnc(C3CC3)c(Cl)c1C(c1c(F)cccc1F)=N[C@H]2C [Example 2, (7S)-11-chloro-12-cyclopropyl-9-(2,6-difluorophenyl)-3,7-dimethyl-2,4,5,8,13-pentazatricyclo[8.4.0.02,6]tetradeca-1(10),3,5,8,11,13-hexaene] |  |  | 23 | 1.36 | 3290 nM | 12.6 nM | 143 nM | 143 nM |  |  |  |  |  | 
Cc1ncc2c(c1Cl)C(c1c(F)cccc1F)=N[C@@H](C)c1nnc(C)n1-2 [Example 3, (7S)-11-chloro-9-(2,6-difluorophenyl)-3,7,12-trimethyl-2,4,5,8,13-pentazatricyclo[8.4.0.02,6]tetradeca-1(10),3,5,8,11,13-hexaene] | 51.6 nM | 51.6 nM | 35 | 1.54 | 1790 nM | 4.7 nM |  |  |  |  |  |  |  | 
Cc1nnc2n1-c1cnc(C(F)(F)F)c(Cl)c1C(c1c(F)cccc1F)=N[C@H]2C [Example 4, (7S)-11-chloro-9-(2,6-difluorophenyl)-3,7-dimethyl-12-(trifluoromethyl)-2,4,5,8,13-pentazatricyclo[8.4.0.02,6]tetradeca-1(10),3,5,8,11,13-hexaene] | 64.3 nM | 64.3 nM | 113 | 2.05 | 7270 nM | 4.9 nM |  |  | 64.3 nM | 113 | 2.1 | 7270 nM |  | 
Cc1nc2n(n1)-c1cnc(C(F)(F)F)c(Cl)c1C(c1c(F)cccc1F)=N[C@H]2C [Example 5] |  |  | 118 | 2.07 | 4740 nM | 1.7 nM |  |  |  |  |  |  | 40 nM | 40 nM
C[C@@H]1N=C(c2c(F)cccc2F)c2c(cnc(C(F)(F)F)c2Cl)-n2nc(C(=O)N3CCC3)nc21 [Example 6, azetidin-1-yl-[(7S)-11-chloro-9-(2,6-difluorophenyl)-7-methyl-12-(trifluoromethyl)-2,3,5,8,13-pentazatricyclo[8.4.0.02,6]tetradeca-1(10),3,5,8,11,13-hexaen-4-yl]methanone] | 45.2 nM | 45.2 nM | 227 | 2.36 | 10200 nM | 11.6 nM |  |  |  |  |  |  |  | 
C[C@@H]1N=C(c2c(F)cccc2F)c2c(cnc(C(F)(F)F)c2Cl)-n2nc(C(=O)N3CC(F)C3)nc21 [Example 7, [(7S)-11-chloro-9-(2,6-difluorophenyl)-7-methyl-12-(trifluoromethyl)-2,3,5,8,13-pentazatricyclo[8.4.0.02,6]tetradeca-1(10),3,5,8,11,13-hexaen-4-yl]-(3-fluoroazetidin-1-yl)methanone] | 20.2 nM | 20.2 nM | 253 | 2.40 | 5100 nM | 3.5 nM |  |  |  |  |  |  |  | 
C[C@@H]1N=C(c2c(F)cccc2F)c2c(cnc(C(F)(F)F)c2Cl)-n2nc(C(=O)N3CC(O)C3)nc21 [Example 8, [(7S)-11-chloro-9-(2,6-difluorophenyl)-7-methyl-12-(trifluoromethyl)-2,3,5,8,13-pentazatricyclo[8.4.0.02,6]tetradeca-1(10),3,5,8,11,13-hexaen-4-yl]-(3-hydroxyazetidin-1-yl)methanone] | 14.6 nM | 14.6 nM | 255 | 2.41 | 3720 nM | 2.5 nM |  |  |  |  |  |  |  | 
COC1CN(C(=O)c2nc3n(n2)-c2cnc(C(F)(F)F)c(Cl)c2C(c2c(F)cccc2F)=N[C@H]3C)C1 [Example 9, [(7S)-11-chloro-9-(2,6-difluorophenyl)-7-methyl-12-(trifluoromethyl)-2,3,5,8,13-pentazatricyclo[8.4.0.02,6]tetradeca-1(10),3,5,8,11,13-hexaen-4-yl]-(3-methoxyazetidin-1-yl)methanone] | 19.9 nM | 19.9 nM | 170 | 2.23 | 3390 nM | 7.1 nM |  |  |  |  |  |  |  | 
C[C@@H]1N=C(c2c(F)cccc2F)c2c(cnc(C(F)(F)F)c2Cl)-n2nc(C(=O)N3CC(C)(O)C3)nc21 [Example 10, [(7S)-11-chloro-9-(2,6-difluorophenyl)-7-methyl-12-(trifluoromethyl)-2,3,5,8,13-pentazatricyclo[8.4.0.02,6]tetradeca-1(10),3,5,8,11,13-hexaen-4-yl]-(3-hydroxy-3-methyl-azetidin-1-yl)methanone] | 14.3 nM | 14.3 nM | 321 | 2.51 | 4610 nM | 3 nM |  |  | 14.3 nM | 321 | 2.5 | 4610 nM |  | 
